Experimental findings from BindingDB's records for PubMed 3010074 (Warner-Lambert/Parke-Davis Pharmaceutical Research, 1986) are described below.

Usually pKi stands for the negative decadic logarithm of the Ki, by convention in mol/L. Higher therefore signals a low Ki.

pKi: −log10 of the molar value.

Sequence of Adenosine receptor A2a (Homo sapiens, UniProt P29274) (P29274 whole entry): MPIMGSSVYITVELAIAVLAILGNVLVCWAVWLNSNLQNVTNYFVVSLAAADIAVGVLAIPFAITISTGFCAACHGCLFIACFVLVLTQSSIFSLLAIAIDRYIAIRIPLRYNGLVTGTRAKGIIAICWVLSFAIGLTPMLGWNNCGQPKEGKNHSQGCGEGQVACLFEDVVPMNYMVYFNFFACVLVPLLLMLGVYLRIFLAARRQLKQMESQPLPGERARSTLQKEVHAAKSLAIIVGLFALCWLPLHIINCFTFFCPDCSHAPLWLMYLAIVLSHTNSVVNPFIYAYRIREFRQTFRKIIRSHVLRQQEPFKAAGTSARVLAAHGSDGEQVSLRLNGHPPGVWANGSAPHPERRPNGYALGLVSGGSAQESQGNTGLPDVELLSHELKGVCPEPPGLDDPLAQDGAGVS

The first assay addresses Adenosine receptor A2a (Homo sapiens, UniProt P29274).
`Cn1c(=O)c2[nH]c(-c3ccc(N)cc3)nc2n(C)c1=O`: the pKi is 6.41.
`Cn1c(=O)c2[nH]c(-c3ccc(Cl)cc3)nc2n(C)c1=O` gave a negative-log Ki (pKi) of 6.43.
Same read-out and setting: under `CCCn1c(=O)c2nc(-c3ccc(N)cc3N)[nH]c2n(CCC)c1=O` stands 6.67; under `CCCc1nc2c([nH]1)c(=O)n(C)c(=O)n2C`, under 5.00; under `O=c1nc2[nH]c3ccccc3nc-2c(=O)[nH]1`, 5.57.
The compound `Cn1c(=O)[nH]c2nc[nH]c2c1=O` [1-Methyl-3,9-dihydro-purine-2,6-dione(1-methylxanthine)] showed a negative logarithm of the Ki (pKi) of under 5.00.
Still for that read-out and setting: to `CC(C)Cn1c(=O)n(C)c(=O)c2[nH]cnc21` [1-methyl-3-(2-methylpropyl)-2,3,6,7-tetrahydro-1H-purine-2,6-dione] belongs under 5.00.
The same measure, in the same setting: under `Cn1c(=O)c2[nH]c(-c3ccc(S(=O)(=O)O)cc3)nc2n(C)c1=O` [4-(1,3-Dimethyl-2,6-dioxo-2,3,6,7-tetrahydro-1H-purin-8-yl)-benzenesulfonic acid] stands under 5.00; under `Cn1c(=O)c2c(ncn2CCCl)n(C)c1=O` [7-(2-Chloroethyl)theophylline], under 5.00.
For `Cn1c(=O)c2nc(-c3ccccc3N)[nH]c2n(C)c1=O` [8-(2-Aminophenyl)theophylline], the pKi was 5.84.
The same measure, in the same setting: under `Cn1c(=O)c2[nH]c(-c3ccc(C(=O)O)cc3)nc2n(C)c1=O` [8-(4-Carboxyphenyl)theophylline] stands 5.14.
Same read-out and setting: to `Cn1c(=O)c2[nH]c(-c3ccc([N+](=O)[O-])cc3)nc2n(C)c1=O` [8-(4-Nitrophenyl)theophylline] belongs 5.60.
The compound `COc1ccc(-c2nc3c([nH]2)c(=O)n(C)c(=O)n3C)cc1` [8-(4-methoxyphenyl)-1,3-dimethyl-1H-purine-2,6(3H,7H)-dione] gave a pKi of 6.38.
Same read-out and setting: under `Cn1c(=O)c2nc(-c3cccs3)[nH]c2n(C)c1=O` [CAS_267102] stands 5.80.
Same read-out and setting: under `CCCCNc1c(C(=O)OCC)c(C)nc2c1cnn2CC` [NSC_5522] stands 5.81; under `CCCCn1c(=O)c2c(ncn2C)n(C)c1=O` [NSC_70835], under 5.00; under `CCCn1c(=O)c2[nH]c(-c3ccc(Cl)cc3N)nc2n(CCC)c1=O` [NSC_92411], 7.04.
On the same count and under the same terms, to `CCn1c(=O)c2c(ncn2C)n(C)c1=O` [NSC_93219] belongs under 5.00.
The compound `CCn1c(=O)c2nc[nH]c2n(CC)c1=O` [NSC_101420] had a pKi of under 5.00.
As to `CCCCNc1c(C(=O)OCC)cnc2c1cnn2CC` [ethyl 4-(butylamino)-1-ethyl-1H-pyrazolo[3,4-b]pyridine-5-carboxylate], the pKi was 5.65.

The target of a further assay is Adenosine receptor A2a (Rattus norvegicus, UniProt P30543).
Sequence of Adenosine receptor A2a (Rattus norvegicus, UniProt P30543) (P30543 whole entry): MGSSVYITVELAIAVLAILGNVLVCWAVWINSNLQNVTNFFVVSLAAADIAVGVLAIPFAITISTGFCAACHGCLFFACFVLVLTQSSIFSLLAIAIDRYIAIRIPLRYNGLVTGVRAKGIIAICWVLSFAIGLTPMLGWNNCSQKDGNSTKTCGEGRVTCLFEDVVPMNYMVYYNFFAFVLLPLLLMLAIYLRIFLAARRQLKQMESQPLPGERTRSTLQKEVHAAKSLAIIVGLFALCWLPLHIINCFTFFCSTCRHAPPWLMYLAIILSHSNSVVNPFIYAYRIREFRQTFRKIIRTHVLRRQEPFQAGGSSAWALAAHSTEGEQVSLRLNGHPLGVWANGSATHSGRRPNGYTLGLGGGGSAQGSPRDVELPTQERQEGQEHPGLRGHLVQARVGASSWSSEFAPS
In turn, `Nc1nc(NC2CCCC2)nc2c1ncn2[C@@H]1O[C@H](CO)[C@@H](O)[C@H]1O` had a pKi of 6.34.
Still for that read-out and setting: to `O=c1[nH]c2c(ncn2[C@@H]2O[C@H](CO)[C@@H](O)[C@H]2O)c2nccn12` [1,N6-Ehteno-2-oxoado] belongs under 5.00; to `Cn1c(N)c2ncn([C@@H]3O[C@H](CO)[C@@H](O)[C@H]3O)c2nc1=O` [1-Methyl-2-oxoado], 5.49; to `CNc1ncnc2c1ncn2[C@H]1C[C@H](O)[C@@H](CO)O1` [2'-Deoxy-N6-methylado], under 5.00.
Same read-out and setting: to `COc1ccc(-c2nc(N)c3ncn([C@@H]4O[C@H](CO)[C@@H](O)[C@H]4O)c3n2)cc1` [2-(4-Methoxyphenyl)ado (CV-1674)] belongs 6.22; to `CSC[C@H]1O[C@@H](n2cnc3c(N)nc(Cl)nc32)[C@H](O)[C@@H]1O` [2-Chloro-5'-methylthioado], 5.73.
The same measure, in the same setting: to `Nc1ncnc2c1ncn2[C@@H]1O[C@H](CI)[C@@H](O)[C@H]1O` [5'-Deoxy-5'-iodoado] belongs 6.20; to `CC(=O)OCC1O[C@@H](n2cnc3c(N)ncnc32)[C@H](O)[C@@H]1O` (some centres undefined) [5'-O-Acetylado], 5.35.
With `Nc1ncnc2c1ncn2[C@@H]1O[C@H](CO[N+](=O)[O-])[C@@H](O)[C@H]1O` [5'-O-Nitroado], the pKi was 6.47. Compared with the last compound, the pKi is 1.12 log units higher.
On the same count and under the same terms, under `Nc1nccc2c1SCN2[C@@H]1O[C@H](CO)[C@@H](O)[C@H]1O` [7-Thia-9deazaado] stands under 5.00.
The same measure, in the same setting: under `CSC[C@H]1O[C@@H](n2cnc3c(N)ncnc32)[C@H](O)[C@@H]1O` [(2R,3R,4S,5S)-2-(6-aminopurin-9-yl)-5-(methylsulfanylmethyl)oxolane-3,4-diol] stands 5.96; under `NC(=O)CCOC[C@H]1O[C@@H](n2cnc3c(N)ncnc32)[C@H](O)[C@@H]1O` [Ado-5'-(2-hydroxyethyl)carboxamide], 7.24; under `NC(=O)OC[C@H]1O[C@@H](n2cnc3c(N)ncnc32)[C@H](O)[C@@H]1O` [Ado-5'-carboxamide], 6.92.
The same measure, in the same setting: under `Nc1ncnc2c1ncn2[C@@H]1O[C@H](NC(=O)C2CCCCC2)[C@@H](O)[C@H]1O` [Ado-5'-cyclohexylcarboxamide] stands 5.37; under `Nc1ncnc2c1ncn2[C@@H]1O[C@H](CNC(=O)C2CC2)[C@@H](O)[C@H]1O` [Ado-5'-cyclopropylcarboxamide], 7.87.
`CCC(=O)OC[C@H]1O[C@@H](n2cnc3c(N)ncnc32)[C@H](O)[C@@H]1O` [Ado-5'-ethylcarboxylate] gave a pKi of 6.41.
Still for that read-out and setting: to `Nc1nc(=O)[nH]c2c1ncn2[C@@H]1O[C@H](CO)[C@@H](O)[C@H]1O` [CAS_1818-71-9] belongs 6.48; to `Nc1nccc2c1ncn2[C@@H]1O[C@H](CO)[C@@H](O)[C@H]1O` [CAS_6736-58-9], under 5.00; to `OC[C@H]1O[C@@H](n2cnc3c(NCc4ccccc4)ncnc32)[C@H](O)[C@@H]1O` [N6-benzylado], 6.55.
